Holding throughout (type): biochemical
Test [1] concerns the target T1, c-Src kinase (human) (Homo sapiens, UniProt P12931).
T1 construct: purchased Upstate Biotechnology, Lake Placid, N.Y
Put plainly: c-Src Kinase Assay. The settings on record: test concentration of 2 μM; multiple values are separate assay results. Put shortly: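 Inhibition was read as 33P incorporation, counted on P30 filtermats, after a 40 min, 30° C reaction. Human c-Src acted on 100 μM Cdc2 peptide with 5 μM ATP (final), pH 7.0 MOPS/MgCl2. Values are percent inhibition at 2 μM compound, or IC50 where determined.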

Test [2] concerns the target T2, EGFR (Homo sapiens, UniProt P00533).
T2 construct: The intracellular portion of EGFR started at nucleotide 2189 (corresponding to amino acid 667) and ended at the termination codon; made in house; host or cells: Sf9 insect cells (baculovirus)
Put plainly: EGFR Kinase Assay. To be noted: for IC50: GST-EGFR, ATP 5 μM; for inhibition at 2 µM: test concentration of 2 μM, compounds without an IC50, read-out: EGFR inhibition in percent. Put shortly: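 GST-fused human EGFR intracellular domain (from aa 667), Sf9-expressed, phosphorylated biotinylated polyGluTyr with 5 μM ATP plus γ-33P ATP in Tris pH 8.0, MgCl2, vanadate, 1 mM DTT, 1 h at 30 °C. Streptavidin Flashplate scintillation read; triplicate 16-point half-log series from 200 uM; IC50 from % inhibition vs log concentration, else % inhibition at 2 μM.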

For test [3], the target named is T3, HER-2 (Homo sapiens, UniProt P04626).
T3 construct: His6 with thrombin site (N); purchased Proqinase (Freiburg, Germany)
T3 sequence (P04626 679-1255): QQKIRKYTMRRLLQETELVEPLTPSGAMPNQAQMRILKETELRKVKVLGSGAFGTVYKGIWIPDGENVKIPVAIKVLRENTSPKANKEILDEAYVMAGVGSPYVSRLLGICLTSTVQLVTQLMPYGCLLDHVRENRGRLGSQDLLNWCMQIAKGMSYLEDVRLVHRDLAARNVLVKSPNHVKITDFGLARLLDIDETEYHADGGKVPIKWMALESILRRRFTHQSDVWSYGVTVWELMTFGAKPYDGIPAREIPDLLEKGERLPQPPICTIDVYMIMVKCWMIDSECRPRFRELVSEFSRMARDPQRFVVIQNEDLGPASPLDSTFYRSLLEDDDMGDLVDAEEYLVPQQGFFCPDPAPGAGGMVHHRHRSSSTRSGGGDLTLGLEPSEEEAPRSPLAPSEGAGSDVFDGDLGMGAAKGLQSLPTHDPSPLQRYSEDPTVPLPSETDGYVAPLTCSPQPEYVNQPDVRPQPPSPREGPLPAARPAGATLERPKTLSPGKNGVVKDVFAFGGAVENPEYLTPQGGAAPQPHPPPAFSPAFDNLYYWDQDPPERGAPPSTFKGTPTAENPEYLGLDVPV
Put plainly: HER-2 Kinase Assay. To be noted: for inhibition at 1 µM: test concentration of 1 μM; for IC50: value in parentheses. The essentials:
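GST/HIS6-tagged HER-2 aa 679–1255 kinase with biotinylated polyGluTyr (1.5 ng/μL), 1 μM ATP plus γ-33P-ATP, Mg2+/Mn2+, DTT, Hepes pH 7.5; 1 h at 30 °C. Substrate phosphorylation captured on streptavidin scintillation plates after EDTA/PBS washes; values are % inhibition at 1 μM or IC50.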

For test [4], the target named is T4, Lyn kinase (human) (Homo sapiens, UniProt P07948).
T4 construct: purchased Upstate Biotechnology, Lake Placid, N.Y
T4 sequence (P07948 whole entry): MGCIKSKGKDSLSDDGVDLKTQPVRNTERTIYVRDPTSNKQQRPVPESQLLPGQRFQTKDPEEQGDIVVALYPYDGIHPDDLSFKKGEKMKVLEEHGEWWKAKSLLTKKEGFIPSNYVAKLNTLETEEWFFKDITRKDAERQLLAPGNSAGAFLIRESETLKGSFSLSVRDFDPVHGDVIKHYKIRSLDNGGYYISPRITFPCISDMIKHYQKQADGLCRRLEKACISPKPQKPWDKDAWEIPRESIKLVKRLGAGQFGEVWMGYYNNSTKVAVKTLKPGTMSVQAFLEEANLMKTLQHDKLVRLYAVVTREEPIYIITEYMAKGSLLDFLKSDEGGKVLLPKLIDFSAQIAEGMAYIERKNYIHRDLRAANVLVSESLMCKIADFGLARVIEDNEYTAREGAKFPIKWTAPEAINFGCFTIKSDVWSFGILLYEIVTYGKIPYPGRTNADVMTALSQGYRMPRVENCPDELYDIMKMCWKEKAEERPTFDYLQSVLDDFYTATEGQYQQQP
Put plainly: Lyn Kinase Assay. The settings on record: test concentration of 2 μM. The essentials:
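Radiometric filter-binding assay with recombinant human Lyn, poly(Glu,Tyr) substrate (0.1 mg/mL final), 5 μM ATP plus γ-33P-ATP in MOPS pH 7.5/Mg acetate buffer; 40 min at 30 °C, stopped with phosphoric acid, counted by scintillation. Reported as percent inhibition at 2 μM, with IC50 (μM) where determined.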

The inhibition is the relative decrease from the control value, in per cent. For orientation: IC50 means the concentration needed to halve the response being measured.

T2 sequence (P00533 669-1210 limits assumed): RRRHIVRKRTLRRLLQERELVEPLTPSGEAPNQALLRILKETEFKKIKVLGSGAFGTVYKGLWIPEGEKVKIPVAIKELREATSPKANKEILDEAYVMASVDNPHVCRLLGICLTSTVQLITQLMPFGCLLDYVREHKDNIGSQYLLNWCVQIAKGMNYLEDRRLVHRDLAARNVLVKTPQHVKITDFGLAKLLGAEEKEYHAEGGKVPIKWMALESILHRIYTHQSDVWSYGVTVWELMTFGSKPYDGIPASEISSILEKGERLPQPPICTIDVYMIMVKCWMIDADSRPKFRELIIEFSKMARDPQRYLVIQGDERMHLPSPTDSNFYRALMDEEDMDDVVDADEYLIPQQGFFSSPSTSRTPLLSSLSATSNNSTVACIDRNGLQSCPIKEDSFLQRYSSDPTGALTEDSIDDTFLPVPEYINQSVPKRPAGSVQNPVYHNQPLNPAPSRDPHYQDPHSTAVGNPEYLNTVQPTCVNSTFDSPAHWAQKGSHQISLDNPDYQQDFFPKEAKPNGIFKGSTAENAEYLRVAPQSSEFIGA
T1 sequence (P12931 whole entry): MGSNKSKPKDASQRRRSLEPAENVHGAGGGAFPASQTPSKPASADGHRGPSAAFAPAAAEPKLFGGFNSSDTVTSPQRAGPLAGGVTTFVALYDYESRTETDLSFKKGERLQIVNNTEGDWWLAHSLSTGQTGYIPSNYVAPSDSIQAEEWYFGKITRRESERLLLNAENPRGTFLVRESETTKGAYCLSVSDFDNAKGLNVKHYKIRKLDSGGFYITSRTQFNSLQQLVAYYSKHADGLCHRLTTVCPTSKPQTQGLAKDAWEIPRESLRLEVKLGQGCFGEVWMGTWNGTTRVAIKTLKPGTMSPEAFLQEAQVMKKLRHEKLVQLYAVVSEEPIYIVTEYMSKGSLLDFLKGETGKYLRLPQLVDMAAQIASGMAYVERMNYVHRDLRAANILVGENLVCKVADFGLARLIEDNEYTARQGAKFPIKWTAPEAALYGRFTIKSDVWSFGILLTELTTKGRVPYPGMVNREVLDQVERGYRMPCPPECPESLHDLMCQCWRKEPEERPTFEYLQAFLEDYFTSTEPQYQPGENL

As to `O=C(Nc1ccc(CN2CCCCC2)cc1)c1sc2ncnc3c2c1NC(=O)N3c1ccc(Oc2cccc(F)c2)cc1` [Cpd 131, 5-[4-(3-fluoro-phenoxy)-phenyl]-4-oxo-4,5-dihydro-3H-1-thia-3,5,6,8-tetraaza-acenaphthylene-2-carboxylic acid (4-piperidin-1-ylmethyl-phenyl)-amide], the inhibition at 2 µM in test [1] was determined as 36%; in test [4] it was 41%. The IC50 in test [2] was 10 nM; in test [3] it was 84 nM. In addition, the inhibition at 1 µM in test [3] worked out at 91%.
As for `O=C(Nc1ccc(CN2CCCCC2)cc1)c1sc2ncnc3c2c1NC(=O)N3c1ccc(F)c(Br)c1` [Cpd 155, 5-(3-bromo-4-fluoro-phenyl)-4-oxo-4,5-dihydro-3H-1-thia-3,5,6,8-tetraaza-acenaphthylene-2-carboxylic acid (4-piperidin-1-ylmethyl-phenyl)-amide], the values for the inhibition at 2 µM in test [1] and in test [4] were 18% and 41%, respectively. Further, the values for the IC50 in test [2] and in test [3] were 28 nM and 327 nM, respectively. In test [3], the inhibition at 1 µM amounted to 88%.
In the case of `COc1cc(N2C(=O)Nc3c(C(=O)Nc4ccc(OC)c(OC)c4)sc4ncnc2c34)c(Cl)cc1Cl` [Cpd 35, 5-(2,4-dichloro-5-methoxy-phenyl)-4-oxo-4,5-dihydro-3H-1-thia-3,5,6,8-tetraaza-acenaphthylene-2-carboxylic acid (3,4-dimethoxy-phenyl)-amide], the inhibition at 2 µM is 7% in test [1] and -11% in test [4]. This compound also returned an IC50 in test [2] of 5710 nM. Besides, the inhibition at 1 µM in test [3] was -12%.
The corresponding values for `COc1ccc(NC(=O)c2sc3ncnc4c3c2NC(=O)N4c2ccc(Br)cc2F)cc1OC` [Cpd 37, 5-(4-bromo-2-fluoro-phenyl)-4-oxo-4,5-dihydro-3H-1-thia-3,5,6,8-tetraaza-acenaphthylene-2-carboxylic acild (3,4-dimethoxy-phenyl)-amide] are 11%, -13%, 490 nM and 1%.
In the case of `O=C(Nc1ccc(CN2CCOCC2)cc1)c1sc2ncnc3c2c1NC(=O)N3c1ccc(Br)cc1F` [Cpd 53, 5-(4-bromo-2-fluoro-phenyl)-4-oxo-4,5-dihydro-3H-1-thia-3,5,6,8-tetraaza-acenaphthylene-2-carboxylic acid (4-morpholin-4-ylmethyl-phenyl)-amide], the inhibition at 2 µM in test [1] stood at 11%; in test [2], 34%; in test [4], 17%. Moreover, the inhibition at 1 µM in test [3] was -13%.
Consider `O=C(Nc1ccc(CN2CCCCC2)cc1)c1sc2ncnc3c2c1NC(=O)N3c1ccc(N2CCOCC2)cc1` [Cpd 124, 5-(4-morpholin-4-yl-phenyl)-4-oxo-4,5-dihydro-3H-1-thia-3,5,6,8-tetraaza-acenaphthylene-2-carboxylic acid (4-piperidin-1-ylmethyl-phenyl)-amide], for which the inhibition at 2 µM in test [1] was determined as 30%; in test [2], 9%; in test [4] it was 18%. Moreover, the IC50 in test [3] is above 100000 nM.
With `O=C(O)c1sc2ncnc3c2c1NC(=O)N3c1ccc(Oc2ccccc2)cc1` [Cpd 168, 4-oxo-5-(4-phenoxy-phenyl)-4,5-dihydro-3H-1-thia-3,5,6,8-tetraaza-acenaphthylene-2-carboxylic acid], the inhibition at 2 µM was -21% in test [1] and 28% in test [4]. The values for the IC50 in test [2] and in test [3] were 452 nM and 12200 nM, respectively.
Take `COc1ccc(N2C(=O)Nc3c(C(=O)Nc4ccc(CN5CCOCC5)cc4)sc4ncnc2c34)c(F)c1` [Cpd 65, 5-(2-fluoro-4-methoxy-phenyl)-4-oxo-4,5-dihydro-3H-1-thia-3,5,6,8-tetraaza-acenaphthylene-2-carboxylic acid (4-morpholin-4-ylmethyl-phenyl)-amide]: the inhibition at 2 µM is -9% in test [1] and 17.8% in test [4]. Further, the IC50 in test [2] stood at 120 nM; in test [3], 643 nM. Besides, in test [3], the inhibition at 1 µM stood at 58%.
On to `COc1cc(N2C(=O)Nc3c(C(=O)Nc4ccc(OCC5CCCCO5)c(OC)c4)sc4ncnc2c34)c(Cl)cc1Cl` (stereo not drawn) [Cpd 45, 5-(2,4-dichloro-5-methoxy-phenyl)-4-oxo-4,5-dihydro-3H-1-thia-3,5,6,8-tetraaza-acenaphthylene-2-carboxylic acid [3-methoxy-4-(tetrahydro-pyran-2-ylmethoxy)-phenyl)-amide], for which the inhibition at 2 µM in test [1] turned out to be 17%; in test [2] it was 14%; in test [4], 29%. The inhibition at 1 µM in test [3] is -25%.
Take `Cc1cccc(Cl)c1N1C(=O)Nc2c(C(=O)Nc3ccc(C(O)CN4CCOCC4)cc3)sc3ncnc1c23` (stereo not drawn) [Cpd 148, 5-(2-chloro-6-methyl-phenyl)-4-oxo-4,5-dihydro-3H-1-thia-3,5,6,8-tetraaza-acenaphthylene-2-carboxylic acid [4-(1-hydroxy-2-morpholin-4-yl-ethyl)-phenyl]-amide]: the results for the inhibition at 2 µM in test [1], in test [2] and in test [4] were 53%, 38% and 59%, respectively. The inhibition at 1 µM in test [3] came out at 30%.
In the case of `O=C(Nc1ccc(CN2CCOCC2)cc1)c1sc2ncnc3c2c1NC(=O)N3c1ccc(-c2ccc(Cl)cc2)cc1` [Cpd 140, 5-(4′-chloro-biphenyl-4-yl)-4-oxo-4,5-dihydro-3H-1-thia-3,5,6,8-tetraaza-acenaphthylene-2-carboxylic acid (4-morpholin-4-ylmethyl-phenyl)-amide], the inhibition at 2 µM in test [1] was 25%; in test [2], 20%; in test [4] it was 43%. The concentration for half-maximal inhibition (IC50) in test [3] was above 100000 nM.
For the compound `Cc1ccc(Oc2ccc(N3C(=O)Nc4c(C(=O)Nc5ccc(CN6CCOCC6)cc5)sc5ncnc3c45)cc2Cl)cn1` [Cpd 129, 5-[3-chloro-4-(6-methyl-pyridin-3-yloxy)-phenyl]-4-oxo-4,5-dihydro-3H-1-thia-3,5,6,8-tetraaza-acenaphthylene-2-carboxylic acid (4-morpholin-4-ylmethyl-phenyl)-amide], the results for the inhibition at 2 µM in test [1] and in test [4] were -3% and 10%, respectively. The IC50 turned out to be 154 nM in test [2] and 515 nM in test [3]. Besides, the inhibition at 1 µM in test [3] was 63%.
In the case of `COc1ccc(N2C(=O)Nc3c(C(=O)Nc4ccc(CN5CCOCC5)cc4)sc4ncnc2c34)cc1Cl` [Cpd 122, 5-(3-chloro-4-methoxy-phenyl)-4-oxo-4,5-dihydro-3H-1-thia-3,5,6,8-tetraaza-acenaphthylene-2-carboxylic acid (4-morpholin-1-ylmethyl-phenyl)-amide], the inhibition at 2 µM in test [1] was -9%; in test [4] it was 3%. In addition, the 50% inhibitory concentration (IC50) stood at 222 nM in test [2] and 1440 nM in test [3].
With `O=C(NCCN1CCOCC1)c1sc2ncnc3c2c1NC(=O)N3c1ccc(Oc2ccccc2)cc1` [Cpd 105, 4-oxo-5-(4-phenoxy-phenyl)-4,5-dihydro-3H-1-thia-3,5,6,8-tetraaza-acenaphthylene-2-carboxylic acid (2-morpholin-4-yl-ethyl)-amide], the figures for the inhibition at 2 µM in test [1] and in test [4] were 12% and -3%, respectively. The IC50 worked out at 110 nM in test [2] and 3150 nM in test [3].
For the compound `O=C(Nc1ccc(CCN2CCCCC2)cc1)c1sc2ncnc3c2c1NC(=O)N3c1ccc(Oc2ccccc2)cc1` [Cpd 166, 4-oxo-5-(4-phenoxy-phenyl)-4,5-dihydro-3H-1-thia-3,5,6,8-tetraaza-acenaphthylene-2-carboxylic acid [4-(2-piperidin-1-yl-ethyl)-phenyl]-amide], the inhibition at 2 µM came to 22% in test [1] and 51% in test [4]. In addition, the concentration for half-maximal inhibition (IC50) in test [2] was found to be 21 nM; in test [3] it was 171 nM.
Regarding `CN1CCN(Cc2ccc(NC(=O)c3sc4ncnc5c4c3NC(=O)N5c3ccccc3Cl)cc2)CC1` [Cpd 151, 5-(2-chloro-phenyl)-4-oxo-4,5-dihydro-3H-1-thia-3,5,6,8-tetraaza-acenaphthylene-2-carboxylic acid [4-(4-methyl-piperazin-1-ylmethyl)-phenyl]-amide], the inhibition at 2 µM came to 53% in test [1] and 61% in test [4]. Half-maximal inhibition in test [2] (IC50) was put at 603 nM. In addition, the inhibition at 1 µM in test [3] amounted to 29%.
With `O=C(Nc1ccc(CN2CCCCC2)cc1)c1sc2ncnc3c2c1NC(=O)N3c1ccc(-c2ccc(Cl)cc2)cc1` [Cpd 139, 5-(4′-chloro-biphenyl-4-yl)-4-oxo-4,5-dihydro-3H-1-thia-3,5,6,8-tetraaza-acenaphthylene-2-carboxylic acid (4-piperidin-1-ylmethyl-phenyl)-amide], the inhibition at 2 µM in test [1] turned out to be 28%; in test [2] it was 18%; in test [4], 34%. In addition, in test [3], the IC50 is above 100000 nM.

(Values after US7579356B2, “Thia-tetraazaacenaphthylene kinase inhibitors” (Janssen Pharmaceutica NV, priority 2005, dated 2009).)
